The record followed here is ChEMBL document CHEMBL1136352, “Synthesis of 2-fluoronoraristeromycin and its inhibitory activity against Plasmodium falciparum S-adenosyl-L-homocysteine hydrolase” (Bioorg Med Chem Lett, 2003).

For one test, the system named is FM3A. The test can be described thus: Inhibitory activity against mammalian FM3A cell. The note with it: Mus musculus. It counts as functional, cell-based.
A further test relates to Plasmodium falciparum. The test can be described thus: Inhibitory activity against Plasmodium falciparum. It counts as functional, organism-based.
Test [1] concerns the target Adenosylhomocysteinase (Homo sapiens, UniProt P23526). The test can be described thus: Inhibitory activity against human S-adenosyl-L-homocysteine hydrolase.
Test [2] addresses Adenosylhomocysteinase (Plasmodium falciparum 3D7, UniProt P50250). The test can be described thus: Inhibitory activity against Plasmodium falciparum S-adenosyl-L-homocysteine hydrolase.

Sequence of Adenosylhomocysteinase (Homo sapiens, UniProt P23526) (P23526 whole entry): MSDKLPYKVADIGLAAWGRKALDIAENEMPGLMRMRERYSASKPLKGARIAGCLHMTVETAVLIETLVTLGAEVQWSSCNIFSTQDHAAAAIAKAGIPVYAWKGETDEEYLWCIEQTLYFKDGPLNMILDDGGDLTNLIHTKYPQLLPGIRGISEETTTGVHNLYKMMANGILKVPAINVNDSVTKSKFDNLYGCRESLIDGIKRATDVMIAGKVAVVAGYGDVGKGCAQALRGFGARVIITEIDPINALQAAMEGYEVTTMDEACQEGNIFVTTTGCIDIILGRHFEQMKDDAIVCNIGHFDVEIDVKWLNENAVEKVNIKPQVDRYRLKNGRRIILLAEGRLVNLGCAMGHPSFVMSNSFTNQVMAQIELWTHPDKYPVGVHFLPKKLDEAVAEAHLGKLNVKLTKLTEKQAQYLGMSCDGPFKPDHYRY
Sequence of Adenosylhomocysteinase (Plasmodium falciparum 3D7, UniProt P50250) (P50250 whole entry): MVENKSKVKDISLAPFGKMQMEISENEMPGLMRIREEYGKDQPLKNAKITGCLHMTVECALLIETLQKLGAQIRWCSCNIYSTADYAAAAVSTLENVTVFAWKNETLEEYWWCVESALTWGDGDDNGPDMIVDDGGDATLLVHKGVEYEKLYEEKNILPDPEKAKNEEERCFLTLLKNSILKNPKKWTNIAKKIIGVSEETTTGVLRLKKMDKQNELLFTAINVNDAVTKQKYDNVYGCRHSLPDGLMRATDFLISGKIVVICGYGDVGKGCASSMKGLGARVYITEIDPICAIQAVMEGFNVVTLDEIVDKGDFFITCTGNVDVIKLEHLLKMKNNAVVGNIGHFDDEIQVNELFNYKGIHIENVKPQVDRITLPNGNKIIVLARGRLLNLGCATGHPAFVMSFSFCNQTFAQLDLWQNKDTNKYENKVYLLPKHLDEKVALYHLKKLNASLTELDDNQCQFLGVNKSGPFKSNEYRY

Take `Nc1nc(F)nc2c1ncn2[C@@H]1C[C@H](O)[C@@H](O)[C@H]1O`: the EC50 (commonly the concentration that produces a half-maximal response) in the test with FM3A amounted to 7.2 µM; with Plasmodium falciparum, 7.4 µM. In addition, the IC50 (as a rule, the concentration that inhibits the measured activity by half) against Adenosylhomocysteinase [1] was determined as 63 µM; on Adenosylhomocysteinase [2] it was 13 µM. For the same molecule, the figures for the Ki at Adenosylhomocysteinase [1] and at Adenosylhomocysteinase [2] were 7.9 µM and 0.48 µM, respectively.

For `Nc1ncnc2c1ncn2[C@@H]1C[C@H](O)[C@@H](O)[C@H]1O` [NORARISTEROMYCIN], the EC50 in the test with FM3A was 0.072 µM; in the test with Plasmodium falciparum, 7.4 µM. The IC50 at Adenosylhomocysteinase [1] stood at 1.1 µM; against Adenosylhomocysteinase [2] it was 3.1 µM. Also, the results for the Ki at Adenosylhomocysteinase [1] and at Adenosylhomocysteinase [2] were 0.16 µM and 0.18 µM, respectively.
